The target in the assay is T1, Acetylcholinesterase (Mus musculus, UniProt P21836).
T1 sequence (P21836 whole entry): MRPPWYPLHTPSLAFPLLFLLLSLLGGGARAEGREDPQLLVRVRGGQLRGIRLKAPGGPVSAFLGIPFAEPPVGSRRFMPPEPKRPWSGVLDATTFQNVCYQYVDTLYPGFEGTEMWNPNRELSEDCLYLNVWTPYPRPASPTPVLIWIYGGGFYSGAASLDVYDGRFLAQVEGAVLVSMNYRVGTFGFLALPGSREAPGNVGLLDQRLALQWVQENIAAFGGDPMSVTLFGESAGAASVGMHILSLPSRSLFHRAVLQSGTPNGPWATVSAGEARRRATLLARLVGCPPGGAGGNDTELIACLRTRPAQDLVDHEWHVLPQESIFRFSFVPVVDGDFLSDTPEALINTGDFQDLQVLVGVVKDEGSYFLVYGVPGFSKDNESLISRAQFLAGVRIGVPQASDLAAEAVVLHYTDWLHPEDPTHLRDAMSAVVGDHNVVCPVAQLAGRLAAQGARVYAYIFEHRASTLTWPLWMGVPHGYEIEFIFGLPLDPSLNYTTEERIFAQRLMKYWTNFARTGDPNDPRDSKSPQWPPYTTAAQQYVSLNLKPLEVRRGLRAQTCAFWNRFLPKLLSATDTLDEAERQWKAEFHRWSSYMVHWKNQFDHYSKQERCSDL
Description: Inhibition of mouse AChE using acetylthiocholine as substrate measured after 300 secs by Ellman's method. A general note: In Ellman's method for cholinesterases, released thiocholine reacts with DTNB.

Molecules are shown by their SMILES. pIC50: −log10 of the molar value. Some results are limits rather than exact numbers.

The pIC50 is the IC50 on a negative log10 scale, so that one unit is a factor of ten. A higher pIC50 goes with a low IC50.

As for `COCCN(CC1CCCN(Cc2ccccc2)C1)S(=O)(=O)c1ccc2ccccc2c1` (stereo unspecified), the negative logarithm of the IC50 (pIC50) was below 5.00.

The values are drawn from ChEMBL document CHEMBL4321822 (J Med Chem, 2019).
